Laboratory results reported in patent US20110060057A1, “Inhibition of the Survival of Skin Cancer by Cyclohexenone Compounds from Antrodia Camphorata” (GOLDEN BIOTECHNOLOGY CORPORATION, priority 2009, published 2011).

Tested on: skin cancer cell line A431
Test: In vitro survival assay (MTT) for anti-skin cancer effects
Format: cell-based
Conditions: A-431, A431 human epidermoid carcinoma cell line, 48 hours treatment, read-out: IC50 (half inhibition concentration), survival of skin cancer cells
Method: Inhibiting effects of skin cancer cells by cyclohexenone compounds of Antrodia camphorata from example 1 were assessed according to the anticancer-drug screening model of National Cancer Institute (NCI). The compound 4-hydroxy-2,3-dimethoxy-6-methyl-5 -(3,7,11-trimethyl-dodeca-2,6,10-trienyl)-cyclohex-2-enone from example 1 was added into the culture media of skin cancer cell line A431 to determine the survival rates. Survival of cell was analyzed using MTT assay. A431 cell line was a human epidermoid carcinoma cell line.
MTT assay is commonly used to analyze cell proliferation, survival rate of viable cells and cytotoxicity. MTT (3[4,5-dimethylthiazol-2-yl]-2,5-diphenyltetrazolium bromide) is a yellow dye which can be converted to water-insoluble purple formazan on the reductive cleavage of its tetrazolium ring by the succinate tetrazolium reductase in mitochondria of cells. The amount of formazan produced is used to detect the number of viable cells and calculate the survival rates. […]
Afterward, 2.5 mg/ml of MTT solution was added to each well and incubated in the dark for 4 hours, followed by the addition of 100 μl of lysis buffer to stop the reaction. The absorbances were measured at 570 nm with an ELISA Reader to determine the survival rates.

COC1=C(OC)C(O)C(C/C=C(\C)CC/C=C(\C)CCC=C(C)C)C(C)C1=O (stereo not shown) [formula 2, 4-hydroxy-2,3-dimethoxy-6-methyl-5-(3,7,11-trimethyl-dodeca-2,6,10-trienyl)-cyclohex-2-enone]
IC50: 0.18 µg/mL
